This experiment in a line: Compound was tested for the inhibitory activity against alpha-mannosidase.
The term IC50 denotes the concentration that gives 50% inhibition. A lower IC50 goes with greater potency. `CS[C@H]1[C@H](O)[C@H](O)C[C@@H]1N` returned an IC50 of over 100 µM.
The compound `CS[C@@H]1[C@@H](N)[C@@H](O)[C@@H](O)[C@H]1O` [MANNOSTATIN A] yielded an IC50 of 0.24 µM.
The value for `CS[C@H]1C[C@H](O)[C@H](O)[C@@H]1N` was 28 µM.
Under `CS[C@@H]1[C@@H](N)[C@@H](O)C[C@H]1O` stands 31 µM; under `OCC1NC(O)C(O)C(O)C1O` (stereo not given), 42 µM.

Values taken from ChEMBL document CHEMBL1131727, “Synthesis and biological evaluation of alpha-mannosidase inhibitory activity of three deoxy derivatives of mannostatin A” (Bioorg Med Chem Lett, 1999).
